Active and inactive are the calls of the source.
Tests used:
[1] = biological target: Dual specificity protein kinase CLK3 (Homo sapiens, UniProt P49761); type: subcellular, K-562, COLO 205, SK-N-BE(2) and MV-4-11, Cell lysate; conditions: read-out: Kd apparent
[2] = biological target: Uncharacterized aarF domain-containing protein kinase 5 (Homo sapiens, UniProt Q3MIX3)
[3] = biological target: Cell division cycle 7-related protein kinase (Homo sapiens, UniProt O00311)
[4] = biological target: Cyclin-dependent kinase 2 (Homo sapiens, UniProt P24941)
[5] = biological target: Dual specificity protein kinase CLK2 (Homo sapiens, UniProt P49760)
[6] = biological target: Epidermal growth factor receptor (Homo sapiens, UniProt P00533)
[7] = biological target: T1, Eukaryotic translation initiation factor 5B (Homo sapiens, UniProt O60841)
T1 sequence (O60841 whole entry): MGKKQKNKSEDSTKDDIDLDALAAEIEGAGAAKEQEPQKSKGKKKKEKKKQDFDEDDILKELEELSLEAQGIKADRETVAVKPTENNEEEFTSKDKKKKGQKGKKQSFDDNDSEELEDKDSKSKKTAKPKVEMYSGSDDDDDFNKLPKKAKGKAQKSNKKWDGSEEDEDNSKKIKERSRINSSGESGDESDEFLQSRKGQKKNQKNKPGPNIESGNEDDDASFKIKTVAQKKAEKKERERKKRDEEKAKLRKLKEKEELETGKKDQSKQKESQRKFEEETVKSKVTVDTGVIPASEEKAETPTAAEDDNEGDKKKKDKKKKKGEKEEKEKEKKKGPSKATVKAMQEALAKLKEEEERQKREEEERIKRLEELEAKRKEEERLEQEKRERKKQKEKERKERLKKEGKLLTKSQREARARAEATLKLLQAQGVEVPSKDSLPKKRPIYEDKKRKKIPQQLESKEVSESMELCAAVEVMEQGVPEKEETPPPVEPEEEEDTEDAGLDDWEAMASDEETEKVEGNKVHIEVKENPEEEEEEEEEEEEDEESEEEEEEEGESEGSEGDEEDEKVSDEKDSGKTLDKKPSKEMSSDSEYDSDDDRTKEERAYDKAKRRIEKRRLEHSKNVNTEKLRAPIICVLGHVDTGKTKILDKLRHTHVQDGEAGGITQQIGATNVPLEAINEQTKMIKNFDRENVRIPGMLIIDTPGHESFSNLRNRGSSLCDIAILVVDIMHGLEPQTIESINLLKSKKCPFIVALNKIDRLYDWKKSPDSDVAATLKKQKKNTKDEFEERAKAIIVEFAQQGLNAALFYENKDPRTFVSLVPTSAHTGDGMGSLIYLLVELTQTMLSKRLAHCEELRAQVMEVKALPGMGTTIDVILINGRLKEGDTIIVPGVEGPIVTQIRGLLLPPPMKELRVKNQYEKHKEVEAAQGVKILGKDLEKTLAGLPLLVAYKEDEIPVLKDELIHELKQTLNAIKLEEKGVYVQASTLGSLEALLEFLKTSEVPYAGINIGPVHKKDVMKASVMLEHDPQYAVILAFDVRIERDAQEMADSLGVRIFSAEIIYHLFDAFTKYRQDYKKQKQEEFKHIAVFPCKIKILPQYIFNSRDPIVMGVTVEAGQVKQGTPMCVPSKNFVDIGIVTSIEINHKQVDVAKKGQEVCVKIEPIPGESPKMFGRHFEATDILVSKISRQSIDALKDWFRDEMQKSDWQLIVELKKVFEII

Ephrin type-A receptor 7 = Ephrin type-A receptor 7 (Homo sapiens, UniProt Q15375)
Obg-like ATPase 1 = Obg-like ATPase 1 (Homo sapiens, UniProt Q9NTK5)
[8] = biological target: Serine/threonine-protein kinase PAK 6 (Homo sapiens, UniProt Q9NQU5)
[9] = biological target: PAS domain-containing serine/threonine-protein kinase (Homo sapiens, UniProt Q96RG2)
[10] = biological target: Choline-phosphate cytidylyltransferase A (Homo sapiens, UniProt P49585)
[11] = biological target: Membrane-associated progesterone receptor component 1 (Homo sapiens, UniProt O00264)
[12] = biological target: Protein kinase C theta type (Homo sapiens, UniProt Q04759)
[13] = biological target: Dual specificity testis-specific protein kinase 1 (Homo sapiens, UniProt Q15569)
[14] = biological target: Serine/threonine-protein kinase ATR (Homo sapiens, UniProt Q13535)
Also: in the data inactive means no Kd found up to 30 µM.

Sequence of Serine/threonine-protein kinase ATR (Q13535 whole entry): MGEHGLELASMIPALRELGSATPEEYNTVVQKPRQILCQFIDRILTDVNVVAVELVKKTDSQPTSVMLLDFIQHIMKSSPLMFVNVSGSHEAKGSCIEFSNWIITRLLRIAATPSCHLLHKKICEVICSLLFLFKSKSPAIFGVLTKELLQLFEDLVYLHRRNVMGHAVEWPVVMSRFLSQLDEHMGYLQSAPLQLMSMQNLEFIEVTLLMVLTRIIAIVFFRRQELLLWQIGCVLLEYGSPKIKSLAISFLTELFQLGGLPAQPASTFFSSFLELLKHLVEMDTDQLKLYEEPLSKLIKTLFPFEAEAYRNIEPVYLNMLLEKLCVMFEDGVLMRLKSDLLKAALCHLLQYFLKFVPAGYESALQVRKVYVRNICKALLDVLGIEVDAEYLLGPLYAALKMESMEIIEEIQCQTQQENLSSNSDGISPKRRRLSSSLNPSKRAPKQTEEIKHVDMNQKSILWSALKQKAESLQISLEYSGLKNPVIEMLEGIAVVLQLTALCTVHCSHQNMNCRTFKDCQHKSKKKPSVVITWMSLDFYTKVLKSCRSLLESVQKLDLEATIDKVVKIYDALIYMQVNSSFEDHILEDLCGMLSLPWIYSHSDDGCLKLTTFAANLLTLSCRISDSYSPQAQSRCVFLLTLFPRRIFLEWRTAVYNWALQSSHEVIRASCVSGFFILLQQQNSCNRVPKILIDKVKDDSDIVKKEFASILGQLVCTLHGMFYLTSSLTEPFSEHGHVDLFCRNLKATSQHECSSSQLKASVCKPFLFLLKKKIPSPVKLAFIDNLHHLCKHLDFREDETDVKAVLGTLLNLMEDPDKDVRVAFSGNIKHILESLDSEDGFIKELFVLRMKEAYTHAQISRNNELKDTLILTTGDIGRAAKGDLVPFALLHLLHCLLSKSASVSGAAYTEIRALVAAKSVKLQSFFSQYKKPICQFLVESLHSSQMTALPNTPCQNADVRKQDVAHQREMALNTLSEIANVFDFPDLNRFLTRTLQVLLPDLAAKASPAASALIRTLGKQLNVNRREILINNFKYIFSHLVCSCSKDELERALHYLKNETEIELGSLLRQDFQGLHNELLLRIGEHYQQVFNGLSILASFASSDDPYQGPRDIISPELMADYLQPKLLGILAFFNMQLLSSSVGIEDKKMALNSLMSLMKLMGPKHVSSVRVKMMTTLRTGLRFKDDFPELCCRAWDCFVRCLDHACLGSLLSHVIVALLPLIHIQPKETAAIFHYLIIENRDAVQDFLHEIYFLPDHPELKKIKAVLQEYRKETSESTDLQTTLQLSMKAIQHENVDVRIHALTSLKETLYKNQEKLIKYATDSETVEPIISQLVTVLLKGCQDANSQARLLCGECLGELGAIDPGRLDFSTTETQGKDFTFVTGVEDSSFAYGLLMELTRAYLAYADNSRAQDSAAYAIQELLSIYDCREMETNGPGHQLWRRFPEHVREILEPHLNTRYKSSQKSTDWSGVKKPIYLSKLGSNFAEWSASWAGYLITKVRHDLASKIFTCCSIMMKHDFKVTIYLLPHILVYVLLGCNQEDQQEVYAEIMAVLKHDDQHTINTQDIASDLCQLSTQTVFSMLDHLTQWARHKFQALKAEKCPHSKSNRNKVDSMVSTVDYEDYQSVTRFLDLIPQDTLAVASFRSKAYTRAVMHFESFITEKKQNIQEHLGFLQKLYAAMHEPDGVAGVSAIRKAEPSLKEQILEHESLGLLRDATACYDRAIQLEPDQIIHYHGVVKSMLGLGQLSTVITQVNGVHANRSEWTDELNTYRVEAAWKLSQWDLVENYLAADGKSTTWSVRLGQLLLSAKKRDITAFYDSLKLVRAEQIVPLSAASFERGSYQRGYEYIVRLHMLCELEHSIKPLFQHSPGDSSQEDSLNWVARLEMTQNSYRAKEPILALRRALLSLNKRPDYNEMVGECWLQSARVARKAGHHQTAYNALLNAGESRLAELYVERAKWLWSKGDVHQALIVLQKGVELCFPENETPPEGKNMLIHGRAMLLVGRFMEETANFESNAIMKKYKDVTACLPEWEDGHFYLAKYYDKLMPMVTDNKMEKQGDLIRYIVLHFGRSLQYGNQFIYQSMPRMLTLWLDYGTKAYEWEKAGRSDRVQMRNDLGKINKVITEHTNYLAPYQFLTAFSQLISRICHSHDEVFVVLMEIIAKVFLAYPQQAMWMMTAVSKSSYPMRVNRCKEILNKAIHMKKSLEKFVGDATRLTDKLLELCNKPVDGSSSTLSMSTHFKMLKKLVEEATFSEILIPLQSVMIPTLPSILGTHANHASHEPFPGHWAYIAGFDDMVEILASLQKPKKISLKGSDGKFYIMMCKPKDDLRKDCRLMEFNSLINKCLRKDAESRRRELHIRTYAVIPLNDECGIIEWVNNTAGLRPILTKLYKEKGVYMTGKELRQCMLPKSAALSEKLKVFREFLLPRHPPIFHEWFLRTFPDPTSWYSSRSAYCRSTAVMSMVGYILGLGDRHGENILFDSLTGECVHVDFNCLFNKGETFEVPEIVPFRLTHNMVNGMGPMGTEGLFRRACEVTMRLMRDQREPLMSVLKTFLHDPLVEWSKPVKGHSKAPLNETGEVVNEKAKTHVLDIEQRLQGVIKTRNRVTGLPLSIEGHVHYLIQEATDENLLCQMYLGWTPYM
Sequence of Cell division cycle 7-related protein kinase (O00311 whole entry): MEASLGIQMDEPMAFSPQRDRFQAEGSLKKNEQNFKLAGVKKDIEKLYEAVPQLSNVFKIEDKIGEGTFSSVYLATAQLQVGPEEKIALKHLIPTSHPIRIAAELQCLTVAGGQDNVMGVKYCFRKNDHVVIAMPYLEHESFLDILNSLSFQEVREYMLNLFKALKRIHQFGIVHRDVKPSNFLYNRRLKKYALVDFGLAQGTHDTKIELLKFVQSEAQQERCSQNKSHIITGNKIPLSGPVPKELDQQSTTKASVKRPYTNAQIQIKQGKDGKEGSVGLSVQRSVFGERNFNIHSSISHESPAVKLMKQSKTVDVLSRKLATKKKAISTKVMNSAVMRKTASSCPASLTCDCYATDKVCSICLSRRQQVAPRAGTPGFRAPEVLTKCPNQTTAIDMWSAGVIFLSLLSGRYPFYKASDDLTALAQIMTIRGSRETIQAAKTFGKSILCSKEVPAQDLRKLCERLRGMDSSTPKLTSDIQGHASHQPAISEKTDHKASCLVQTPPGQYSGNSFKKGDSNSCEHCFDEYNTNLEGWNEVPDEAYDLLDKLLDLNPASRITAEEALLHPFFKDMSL
Sequence of Obg-like ATPase 1 (Q9NTK5 whole entry, looked up): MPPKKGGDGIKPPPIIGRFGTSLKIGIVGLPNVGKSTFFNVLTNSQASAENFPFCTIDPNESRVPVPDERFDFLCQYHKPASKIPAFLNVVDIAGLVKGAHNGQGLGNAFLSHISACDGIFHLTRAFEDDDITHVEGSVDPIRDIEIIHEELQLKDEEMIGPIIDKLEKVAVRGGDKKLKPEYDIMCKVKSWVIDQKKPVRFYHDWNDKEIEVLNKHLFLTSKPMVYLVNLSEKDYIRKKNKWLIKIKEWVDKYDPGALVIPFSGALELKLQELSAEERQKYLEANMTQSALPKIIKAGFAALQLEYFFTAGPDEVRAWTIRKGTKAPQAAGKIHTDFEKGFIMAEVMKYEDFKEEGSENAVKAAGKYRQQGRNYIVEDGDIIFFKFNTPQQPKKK
Sequence of Uncharacterized aarF domain-containing protein kinase 5 (Q3MIX3 whole entry, the tested form may be a part): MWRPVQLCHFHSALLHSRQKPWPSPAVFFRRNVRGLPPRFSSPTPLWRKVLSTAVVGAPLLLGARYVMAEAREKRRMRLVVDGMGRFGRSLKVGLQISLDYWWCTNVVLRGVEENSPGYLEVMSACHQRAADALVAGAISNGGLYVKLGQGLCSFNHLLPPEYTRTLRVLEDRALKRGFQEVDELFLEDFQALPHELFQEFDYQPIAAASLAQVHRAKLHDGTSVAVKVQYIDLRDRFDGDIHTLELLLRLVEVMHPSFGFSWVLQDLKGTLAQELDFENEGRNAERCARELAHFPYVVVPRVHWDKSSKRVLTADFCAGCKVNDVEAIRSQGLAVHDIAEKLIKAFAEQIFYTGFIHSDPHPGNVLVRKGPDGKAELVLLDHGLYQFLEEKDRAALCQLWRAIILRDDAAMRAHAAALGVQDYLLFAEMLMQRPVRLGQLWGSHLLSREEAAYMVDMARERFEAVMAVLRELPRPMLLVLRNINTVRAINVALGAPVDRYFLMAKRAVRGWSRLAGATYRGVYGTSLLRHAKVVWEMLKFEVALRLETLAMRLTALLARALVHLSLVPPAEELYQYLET
Sequence of Choline-phosphate cytidylyltransferase A (P49585 whole entry): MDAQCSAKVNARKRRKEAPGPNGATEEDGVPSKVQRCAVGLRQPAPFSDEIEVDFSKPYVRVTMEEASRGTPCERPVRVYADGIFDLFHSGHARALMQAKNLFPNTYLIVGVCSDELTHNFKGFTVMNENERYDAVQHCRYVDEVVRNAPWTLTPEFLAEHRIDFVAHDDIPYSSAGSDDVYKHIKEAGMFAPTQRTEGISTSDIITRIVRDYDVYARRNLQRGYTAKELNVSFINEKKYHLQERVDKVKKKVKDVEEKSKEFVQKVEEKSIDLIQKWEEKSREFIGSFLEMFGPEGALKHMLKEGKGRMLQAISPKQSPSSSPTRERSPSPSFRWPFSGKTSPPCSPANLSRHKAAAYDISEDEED
Sequence of Dual specificity protein kinase CLK2 (P49760 whole entry): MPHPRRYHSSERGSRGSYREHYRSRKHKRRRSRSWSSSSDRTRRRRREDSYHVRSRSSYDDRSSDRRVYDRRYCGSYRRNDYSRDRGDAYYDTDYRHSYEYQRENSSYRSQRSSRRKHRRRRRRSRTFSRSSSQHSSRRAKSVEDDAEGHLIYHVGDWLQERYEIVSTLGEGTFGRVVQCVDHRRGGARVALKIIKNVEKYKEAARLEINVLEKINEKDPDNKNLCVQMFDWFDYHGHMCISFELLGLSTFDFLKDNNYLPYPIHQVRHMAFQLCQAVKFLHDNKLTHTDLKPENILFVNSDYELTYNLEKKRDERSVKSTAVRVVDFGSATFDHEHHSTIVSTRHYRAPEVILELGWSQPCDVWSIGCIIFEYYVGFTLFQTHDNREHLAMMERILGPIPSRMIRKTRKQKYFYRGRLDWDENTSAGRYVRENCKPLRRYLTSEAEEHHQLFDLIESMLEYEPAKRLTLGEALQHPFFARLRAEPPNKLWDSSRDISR

Compound | Kd [1] | Kd [2] | Kd [3] | Kd [4] | Kd [5] | Kd [6] | Kd [7] | Kd (Ephrin type-A receptor 7) | Kd (Obg-like ATPase 1) | Kd [8] | Kd [9] | Kd [10] | Kd [11] | Kd [12] | Kd [13] | Kd [14]
O=C(O)[C@]1(Cc2cccc(Nc3nccs3)n2)CC[C@@H](Oc2cccc(Cl)c2F)CC1 [MK-5108] | > 30 µM (inactive) | > 30 µM (inactive) | > 30 µM (inactive) | > 30 µM (inactive) | > 30 µM (inactive) | > 30 µM (inactive) | > 30 µM (inactive) | > 30 µM (inactive) | > 30 µM (inactive) | > 30 µM (inactive) | > 30 µM (inactive) | > 30 µM (inactive) | > 30 µM (inactive) | > 30 µM (inactive) | > 30 µM (inactive) | –
C=CC(=O)N1CCC(Oc2cc3c(Nc4ccc(Cl)c(Cl)c4F)ncnc3cc2OC)CC1 [POZIOTINIB] | > 30 µM (inactive) | – | – | > 30 µM (inactive) | – | – | > 30 µM (inactive) | > 30 µM (inactive) | > 30 µM (inactive) | > 30 µM (inactive) | – | > 30 µM (inactive) | – | – | > 30 µM (inactive) | –
CN1CC[C@@H](c2c(O)cc(O)c3c(=O)cc(-c4ccccc4Cl)oc23)[C@@H]1CO | > 30 µM (inactive) | – | > 30 µM (inactive) | > 30 µM (inactive) | > 30 µM (inactive) | > 30 µM (inactive) | > 30 µM (inactive) | > 30 µM (inactive) | > 30 µM (inactive) | > 30 µM (inactive) | > 30 µM (inactive) | – | – | > 30 µM (inactive) | > 30 µM (inactive) | –
COc1cc2nccc(Oc3ccc(NC(=O)NC4CC4)c(Cl)c3)c2cc1C(N)=O [LENVATINIB] | > 30 µM (inactive) | > 30 µM (inactive) | – | > 30 µM (inactive) | > 30 µM (inactive) | – | > 30 µM (inactive) | – | > 30 µM (inactive) | – | > 30 µM (inactive) | – | > 30 µM (inactive) | > 30 µM (inactive) | > 30 µM (inactive) | –
CCS(=O)(=O)N1CC(CC#N)(n2cc(-c3ncnc4[nH]ccc34)cn2)C1 [BARICITINIB] | > 30 µM (inactive) | > 30 µM (inactive) | – | > 30 µM (inactive) | > 30 µM (inactive) | > 30 µM (inactive) | > 30 µM (inactive) | > 30 µM (inactive) | > 30 µM (inactive) | > 30 µM (inactive) | > 30 µM (inactive) | – | > 30 µM (inactive) | > 30 µM (inactive) | > 30 µM (inactive) | > 30 µM (inactive)
COc1cc(OC)c(/C=C/S(=O)(=O)Cc2ccc(OC)c(NCC(=O)O)c2)c(OC)c1 [RIGOSERTIB] | 0.04 µM | > 30 µM (inactive) | > 30 µM (inactive) | > 30 µM (inactive) | > 30 µM (inactive) | > 30 µM (inactive) | > 30 µM (inactive) | > 30 µM (inactive) | > 30 µM (inactive) | > 30 µM (inactive) | > 30 µM (inactive) | > 30 µM (inactive) | – | > 30 µM (inactive) | > 30 µM (inactive) | > 30 µM (inactive)
CC[C@@H]1C(=O)N(C)c2cnc(Nc3ccc(C(=O)N[C@H]4CC[C@H](N5CCN(CC6CC6)CC5)CC4)cc3OC)nc2N1C(C)C [VOLASERTIB] | > 30 µM (inactive) | > 30 µM (inactive) | – | > 30 µM (inactive) | > 30 µM (inactive) | > 30 µM (inactive) | > 30 µM (inactive) | > 30 µM (inactive) | > 30 µM (inactive) | – | > 30 µM (inactive) | > 30 µM (inactive) | > 30 µM (inactive) | > 30 µM (inactive) | > 30 µM (inactive) | –
COCCNCc1ccc(-c2cc3nccc(Oc4ccc(NC(=S)NC(=O)Cc5ccc(F)cc5)cc4F)c3s2)nc1 [GLESATINIB] | > 30 µM (inactive) | > 30 µM (inactive) | > 30 µM (inactive) | > 30 µM (inactive) | > 30 µM (inactive) | > 30 µM (inactive) | > 30 µM (inactive) | – | > 30 µM (inactive) | > 30 µM (inactive) | > 30 µM (inactive) | > 30 µM (inactive) | > 30 µM (inactive) | > 30 µM (inactive) | > 30 µM (inactive) | –

Second part, the molecule after the results:

Kd [1] | Kd [2] | Kd [3] | Kd [4] | Kd [5] | Kd [6] | Kd [7] | Kd (Ephrin type-A receptor 7) | Kd (Obg-like ATPase 1) | Kd [8] | Kd [9] | Kd [10] | Kd [11] | Kd [12] | Kd [13] | Kd [14] | Compound
> 30 µM (inactive) | > 30 µM (inactive) | > 30 µM (inactive) | > 30 µM (inactive) | > 30 µM (inactive) | > 30 µM (inactive) | > 30 µM (inactive) | > 30 µM (inactive) | – | > 30 µM (inactive) | > 30 µM (inactive) | > 30 µM (inactive) | > 30 µM (inactive) | > 30 µM (inactive) | > 30 µM (inactive) | > 30 µM (inactive) | Cn1cc(-c2ccc3nnc(C(F)(F)c4ccc5ncccc5c4)n3n2)cn1 [JNJ-38877605]
> 30 µM (inactive) | – | > 30 µM (inactive) | – | > 30 µM (inactive) | > 30 µM (inactive) | > 30 µM (inactive) | > 30 µM (inactive) | > 30 µM (inactive) | > 30 µM (inactive) | > 30 µM (inactive) | > 30 µM (inactive) | – | > 30 µM (inactive) | > 30 µM (inactive) | > 30 µM (inactive) | O=C(Nc1ccc(-c2ccnc(Nc3ccc(N4CCOCC4)cc3)n2)cc1)C1CCCN1 (configuration not stated) [XL-019]
> 30 µM (inactive) | > 30 µM (inactive) | > 30 µM (inactive) | – | > 30 µM (inactive) | > 30 µM (inactive) | > 30 µM (inactive) | > 30 µM (inactive) | – | > 30 µM (inactive) | > 30 µM (inactive) | – | > 30 µM (inactive) | > 30 µM (inactive) | > 30 µM (inactive) | > 30 µM (inactive) | COc1cc(CCc2cc(NC(=O)c3ccc(N4C[C@@H](C)N[C@@H](C)C4)cc3)n[nH]2)cc(OC)c1 [AZD-4547]

Reference: ChEMBL document CHEMBL3991601, “The target landscape of clinical kinase drugs” (Science, 2017)
